Measurements as given in US20060029546A1, “Materials and methods for identifying anti-schizophrenic agents” (deCODE Genetics, Inc., priority 2004, published 2006).
pIC50: −log10 of the molar value.

What was measured:
ErbB4 = ErbB4 tyrosine phosphorylation in HEK293 cells (Western blot); assay type: cell-based; conditions: for NRG1-induced ErbB4 tyrosine phosphorylation: cells expressing ErbB4 and Fyn, inhibitor 25 nM
Method: (§1) To determine whether NRG1-induced activation of ErbB4 leads to Fyn phosphorylation, NRG1 exposure of HEK293 cells stably expressing ErbB4 and Fyn-V5 were activated with 7.2 nM NRG1 (R&D Systems; Minneapolis, Minn.) for 10 minutes and lysed using RIPA buffer. […] There was no change in Fyn Tyr531 phosphorylation. […] Fyn is activated either by dephophorylation of Tyr531 with loss of the SH2 domain interaction, or through displacement of the SH2 domain by a second tyrosine phosphorylated binding partner allowing auto-phosphorylation on the Fyn activation loop residue Tyr420. Alternatively, Fyn can be phosphorylated on Tyr420 and activated directly by a second kinase. Thus, the NRG1-stimulated increase in Fyn Tyr420 phosphorylation may be through stimulation of Fyn auto-phosphorylation, through phosphorylation of Fyn by ErbB4, or through phosphorylation of Fyn by an ErbB4 activated tyrosine kinase other than Fyn.
Thus, NRG1-induced ErbB4 phosphorylation under conditions in which Fyn and related Src-family kinases were inhibited by PP2 (selective Src-family kinase inhibitor described above). […] This may result in the creation of additional SH2 domain docking sites, thus leading to further activation of Fyn as part of a positive feedback mechanism involving NRG1, ErbB4 and Src-family kinases.

Fyn [1] = test: Fyn phosphorylation in HEK293 cells stably expressing ErbB4 and Fyn-V5 (Western blot); assay type: cell-based
Method: as §1
These alternatives were distinguished by applying PP2 (25 nM; Calbiochem, San Diego, Calif.) a relatively selective Src-family kinase inhibitor, to inhibit Fyn while ErbB4 signaling was stimulated with NRG1. […] Fyn was phosphorylated at a low level on Tyr420 under basal conditions. […] After NRG1 stimulation, an increase in Fyn Tyr420 phosphorylation was seen, even under conditions in which PP2 was used to inhibit p59 Fyn autophosphorylation. […]

Fyn [2] = conditions: cited from earlier work
[3] = system: NMDA receptor subunit NR2B; test: NR2B Tyr1472 phosphorylation in mouse hippocampal lysates (Western blot); assay type: in vivo
Method: To further characterize components of the NRG1/ErbB4 signaling pathway a-ErbB4 co-immunoprecipitates from mouse brain hippocampus were analyzed. […] Hippocampus tissue was isolated by manual dissection and homogenized in DOC buffer (20 μM ZnCl2, 50 mM Tris pH 9.0, 1% DOC) (1 ml/50 mg of tissue) containing protease and phosphatase inhibitors as above. 25U Benzonase Nuclease per 1 ml of lysate were added to each sample during a 60 minute incubation at 4° C. For SDS-PAGE and Western blot, sample protein content was determined using a BCA Protein Assay Reagent Kit (Pierce, Rockford, Ill.), adjusted to a final concentration of 2 μg/μl total protein in 1×SDS-PAGE sample buffer, and then 20-25 μg of protein was loaded per gel lane. For immunoprecipitation, samples were adjusted to a final concentration of 2 μg/μl total protein in DOC buffer. […]
It was hypothesized that NRG1^+/− and ErbB4^+/− mutant mice might show altered regulation of NMDA receptor subunit NR2B Tyr1472 phosphorylation related to their abnormal behavioral phenotype. Hippocampal lysates were analyzed as described in Example 1. It was determined that Tyr1472 of NR2B was hypo-phosphorylated in hippocampal lysates from 9 month old NRG1^+/− or ErbB4^+/− mutant mice as compared to age and sex matched C57B1/6 control mice (FIG. 3). […]

NRG1+/− mutant mice = test: Open field test; assay type: in vivo, mouse; conditions: single exposure
Method: NRG1 hypomorphic mutant mice (NRG1^+/−) are heterozygotic mice that have a mutant NRG1 allele in which the NRG1 exon encoding the transmembrane domain is disrupted in the heterozygote. These mice develop normally and breed well. […] Treatment of the NRG1^+/−mice with a clozapine (1 mg/kg), an atypical antipsychotic drug commonly used to treat schizophrenia, for 25 minutes prior to testing reversed the behavioral abnormality. […] In addition, it is known that the NRG1^+/− had 16% fewer functional NMDA receptors overall as compared to litter-mate controls as determined by MK-801 (NMDA antagonist) binding studies on forebrain homogenates (Steffanson et al., Am. J. Hum. Genet. 72: 83-7, 2003). Therefore, these mice are relevant as an in vivo model for schizophrenia.
Behavioral abnormality of NRG1^+/− mutant mice observed in the open field test is reversible with clozapine at a dose of 1 mg/kg i.p. The activity level of wild-type litter mate controls is not affected by that dose of clozapine. Thus, clozapine is not simply sedating at 1 mg/kg i.p., but has a selective effect on the behavioral abnormality of NRG1^+/− mutant mice. Reversal of the behavioral abnormality occurred rapidly within 25 minutes of a single exposure to clozapine.

Row | SMILES | NRG1 induced tyrosine phosphorylation (ErbB4; HEK293 cells expressing only ErbB4) | ErbB4 basal phosphorylation (ErbB4; absence of NRG1) | NRG1-induced ErbB4 tyrosine phosphorylation (ErbB4) | basal Fyn Tyr420 phosphorylation (Fyn [1]; basal conditions, 24 hour preincubation, 25 nM) | pIC50 (Fyn [2]; read-out: Fyn inhibition IC50) | Fyn phosphorylation (Fyn [1]; control compound) | effect on Fyn (Fyn [2]; control kinase inhibitor) | increase of NR2B Tyr1472 phosphorylation ([3]; NRG1+/− mutant mice, 1 mg/kg i.p., 25 minutes after injection, normalized against total NR2B) | NR2B Tyr1472 phosphorylation ([3]; wild-type mice, same dose) | time to reversal of the behavioral abnormality (NRG1+/− mutant mice) [min]
1 | CC(C)(C)n1nc(-c2ccc(Cl)cc2)c2c(N)ncnc21 [PP2] | no effect | no effect | greatly reduced | reduced | […] |  |  |  |  | 
2 | Nc1ncnc2c1cnn2-c1ccccc1 [PP3] |  |  | no effect |  |  | no effect | no effect on Fyn |  |  | 
3 | CN1CCN(C2=Nc3cc(Cl)ccc3Nc3ccccc32)CC1 [clozapine] |  |  |  |  |  |  |  | 2.5-3 fold | no effect | ≤ 25
